# Data: US12178878B2, “Amyloid peptide scaffolds coordinate with Alzheimer's disease drugs” (The University of Massachusetts, priority 2018, dated 2024)
# Read-outs that look alike come from different tables or passages of the source.
# What was measured:
# Type in all cases: binding
# [1] = tested on: […] (SEQ ID NO: 3) amyloid peptide; assay: Coordination at higher peptide concentration (amyloid gel, 5 mg/mL), inhibitor capturing; conditions: for capturing efficiency: relative to 2nd pellet wash, UV-Vis; for AD compound captured, Wash 1 / AD compound captured, Wash 2 / AD compound captured, Wash 3: 1000 μM inhibitor solution added; for AD compound captured, Wash 1: 1st pellet wash; for AD compound captured, Wash 2: 2nd pellet wash; for AD compound captured, Wash 3: 3rd pellet wash
# Protocol: Amyloid Fibrils Preparation and Characterization. For the formation of fibrils, the amyloid peptides were dispersed in DI water at a 10 mg/ml, vortexed, heated at 60° C. for 30 sec, and sonicated for 15 mins (this cycle was repeated 10 times overall), and finally left overnight at room temperature to form a hydrogel. […] That was confirmed with Field Emission Scanning Electron Microscopy (FESEM) and Congo Red staining (CR).
# Coordination Studies at Higher Peptide Concentrations and Inhibitor Capturing. […] (SEQ ID NO: 4) or […] (SEQ ID NO: 3) amyloid peptide gels (10 mg/mL, 1 mL volume) and was left to physically complex under stirring overnight (the final peptide concentration was diluted to 5 mg/mL). A control using 1 mL of 0.1 M PBS (no inhibitor) was also prepared. The complexed amyloid/inhibitor materials were then transferred to 5 mL conical Eppendorf tubes, and centrifuged for 15 mins at 4,400 rpm (14° C.). The supernatant was decanted, and 2 mL of DI water were subsequently added to wash the pellet (followed by vortexing until obtaining a homogenous dispersion) in order to remove any unbound inhibitor. The samples were then centrifuged again at the same conditions so as to pelletize the amyloid materials, and the supernatant was decanted. Another 2 mL of DI water were then added into the pellet, the mixture was vortexed, and the physically bound inhibitor into the amyloid peptides was quantified by UV-Vis between 200-600 nm and MS. This step is denoted as wash 1 in our study. Two additional pellet purification cycles were realized with replacement of the decanted volume each time with 2 mL of fresh DI water (denoted as wash 2 and wash 3 respectively). The inhibitor-containing amyloid peptides were normalized at 400 nm over the respective no inhibitor-containing ones at the specific washing step.
# [2] = tested on: […] (SEQ ID NO: 4) amyloid peptide; conditions: for AD compound captured, Wash 1 / AD compound captured, Wash 2 / AD compound captured, Wash 3: 150 μM inhibitor loaded; for AD compound captured, Wash 1: 1st pellet wash; for AD compound captured, Wash 2: 2nd pellet wash; for AD compound captured, Wash 3: 3rd pellet wash; for fraction of the 150 μM loaded drug incorporated into the peptide: UV-Vis, first wash
# Protocol: Amyloid Peptide/Inhibitor Coordination Studies in Dilute Solutions. […]. As a negative control, 1 mL of 0.1 M PBS buffer was added. The mixtures were vortexed and sonicated to homogenously disperse any solid aggregates and stirred overnight to allow for coordination. The mixtures were transferred to 2 mL Eppendorf tubes and centrifuged for 15 mins at 4,400 rpm (14° C.) to pelletize the amyloid bound-inhibitors, and the supernatant was decanted. Subsequently, 1 mL of DI water was added to wash the pellet (followed by vortexing until obtaining a homogenous dispersion) in order to remove any unbound inhibitor. The samples were then centrifuged again at the same conditions so as to pelletize the amyloid materials, and the supernatant was decanted. Another 1 mL of DI water was then added into the pellet, the mixture was vortexed, and the physically bound inhibitor into the dilute amyloid peptide dispersions was quantified by UV-Vis between 200-600 nm and MS. This step is denoted as wash 1 in our study. Two additional pellet purification cycles were realized with replacement of the decanted volume each time with 1 mL of fresh DI water (denoted as wash 2 and wash 3 respectively). The inhibitor-containing peptides amyloids were normalized at 400 nm over the respective no inhibitor-containing amyloid peptides at the specific washing step, and the measured inhibitor peak values (at 315 nm and 323 nm) were subtracted from that of the amyloid peptide carriers at the same wavelength and concentration. The amount of inhibitors coordinated with the amyloid peptide carriers was quantified based on a calibration curve by both UV-Vis and MS.
# . The peak at 315 nm was selected for inhibitor quantification due the absence of peaks at that range for both peptides. […]. However, the peak at 315 nm was selected for inhibitor quantification, and the following equation was used for both peptides: A315=A315 ([…]/Donepezil)−A315 ([…])
# […]. The peak at 323 nm was used for inhibitor quantification due the absence of peaks at that range for both peptides. […].
# [3] = tested on: […] (SEQ ID NO: 4) amyloid peptide; conditions: for capturing efficiency: relative to 2nd pellet wash, UV-Vis; for AD compound captured, Wash 1 / AD compound captured, Wash 2 / AD compound captured, Wash 3: 1000 μM inhibitor solution added; for AD compound captured, Wash 1: 1st pellet wash; for AD compound captured, Wash 2: 2nd pellet wash; for AD compound captured, Wash 2 / AD compound captured, Wash 3: room temperature; for AD compound captured, Wash 3: 3rd pellet wash
# Protocol: Amyloid Fibrils Preparation and Characterization. For the formation of fibrils, the amyloid peptides were dispersed in DI water at a 10 mg/ml, vortexed, heated at 60° C. for 30 sec, and sonicated for 15 mins (this cycle was repeated 10 times overall), and finally left overnight at room temperature to form a hydrogel.
# A control using 1 mL of 0.1 M PBS (no inhibitor) was also prepared. The complexed amyloid/inhibitor materials were then transferred to 5 mL conical Eppendorf tubes, and centrifuged for 15 mins at 4,400 rpm (14° C.). The supernatant was decanted, and 2 mL of DI water were subsequently added to wash the pellet (followed by vortexing until obtaining a homogenous dispersion) in order to remove any unbound inhibitor. The samples were then centrifuged again at the same conditions so as to pelletize the amyloid materials, and the supernatant was decanted. Another 2 mL of DI water were then added into the pellet, the mixture was vortexed, and the physically bound inhibitor into the amyloid peptides was quantified by UV-Vis between 200-600 nm and MS. This step is denoted as wash 1 in our study. Two additional pellet purification cycles were realized with replacement of the decanted volume each time with 2 mL of fresh DI water (denoted as wash 2 and wash 3 respectively). The inhibitor-containing amyloid peptides were normalized at 400 nm over the respective no inhibitor-containing ones at the specific washing step.
# [4] = FYTGAIIGNYF gel 5 mg/mL, by UV-Vis
# [5] = YFTGAIIGNFY gel 5 mg/mL, by UV-Vis
structure (smiles),measurement,setting,value
COc1cc2c(cc1OC)C(=O)C(CC1CCN(Cc3ccccc3)CC1)C2 (centres unmarked) [donepezil],capturing efficiency,[1]; FYTGAIIGNYF 5 mg/mL,17%
same,"AD compound captured, Wash 1","[1]; FYTGAIIGNYF gel 5 mg/mL, by MS",163 ± 4 µM
same,"AD compound captured, Wash 2","[1]; FYTGAIIGNYF gel 5 mg/mL, by MS",151 ± 1 µM
same,"AD compound captured, Wash 3","[1]; FYTGAIIGNYF gel 5 mg/mL, by MS",148 ± 3 µM
same,"AD compound captured, Wash 1",[1]; [4],187 ± 19 µM
same,"AD compound captured, Wash 2",[1]; [4],173 ± 33 µM
same,"AD compound captured, Wash 3",[1]; [4],160 ± 33 µM
same,"AD compound captured, Wash 1","[2]; YFTGAIIGNFY 1 mg/mL, by MS",43 ± 6 µM
same,"AD compound captured, Wash 2","[2]; YFTGAIIGNFY 1 mg/mL, by MS",32 ± 4 µM
same,"AD compound captured, Wash 3","[2]; YFTGAIIGNFY 1 mg/mL, by MS",21 ± 9 µM
same,"AD compound captured, Wash 1","[2]; YFTGAIIGNFY 1 mg/mL, by UV-Vis",38 µM
same,"AD compound captured, Wash 1","[2]; YFTGAIIGNFY 1 mg/mL, by UV-Vis, listed as Donepezil",38 ± 4 µM
same,"AD compound captured, Wash 2","[2]; YFTGAIIGNFY 1 mg/mL, by UV-Vis",24 ± 4 µM
same,"AD compound captured, Wash 3","[2]; YFTGAIIGNFY 1 mg/mL, by UV-Vis",5 ± 4 µM
same,fraction of the 150 μM loaded drug incorporated into the peptide,[2]; YFTGAIIGNFY 1 mg/mL,approximately ¼
same,capturing efficiency,[3]; YFTGAIIGNFY 5 mg/mL,14%
same,"AD compound captured, Wash 1","[3]; YFTGAIIGNFY gel 5 mg/mL, by MS",154 ± 7 µM
same,"AD compound captured, Wash 2","[3]; YFTGAIIGNFY gel 5 mg/mL, by MS",141 ± 10 µM
same,"AD compound captured, Wash 3","[3]; YFTGAIIGNFY gel 5 mg/mL, by MS",129 ± 24 µM
same,"AD compound captured, Wash 1",[3]; [5],154 ± 11 µM
same,"AD compound captured, Wash 2",[3]; [5],135 ± 8 µM
same,"AD compound captured, Wash 3",[3]; [5],117 ± 5 µM
Nc1c2c(nc3ccccc13)CCCC2 [tacrine],capturing efficiency,[1]; […] 5 mg/mL,approximately 8%
same,"AD compound captured, Wash 1","[1]; […] gel 5 mg/mL, by MS",114 ± 6 µM
same,"AD compound captured, Wash 2","[1]; […] gel 5 mg/mL, by MS",102 ± 2 µM
same,"AD compound captured, Wash 3","[1]; […] gel 5 mg/mL, by MS",94 ± 10 µM
same,"AD compound captured, Wash 1","[1]; […] gel 5 mg/mL, by UV-Vis",104 ± 16 µM
same,"AD compound captured, Wash 2","[1]; […] gel 5 mg/mL, by UV-Vis",82 ± 9 µM
same,"AD compound captured, Wash 3","[1]; […] gel 5 mg/mL, by UV-Vis",72 ± 10 µM
same,"AD compound captured, Wash 1","[2]; […] 1 mg/mL, by MS",37 ± 2 µM
same,"AD compound captured, Wash 2","[2]; […] 1 mg/mL, by MS",2 ± 2 µM
same,"AD compound captured, Wash 3","[2]; […] 1 mg/mL, by MS",0 µM
same,"AD compound captured, Wash 1","[2]; […] 1 mg/mL, by UV-Vis",26 µM
same,"AD compound captured, Wash 1","[2]; […] 1 mg/mL, by UV-Vis, listed as Tacrine",26 ± 2 µM
same,"AD compound captured, Wash 2","[2]; […] 1 mg/mL, by UV-Vis",14 ± 2 µM
same,"AD compound captured, Wash 3","[2]; […] 1 mg/mL, by UV-Vis",3 ± 2 µM
same,fraction of the 150 μM loaded drug incorporated into the peptide,[2]; […] 1 mg/mL,approximately ⅕
same,capturing efficiency,[3]; […] 5 mg/mL,approximately 8%
same,"AD compound captured, Wash 1","[3]; […] gel 5 mg/mL, by MS",98 ± 9 µM
same,"AD compound captured, Wash 2","[3]; […] gel 5 mg/mL, by MS",75 ± 4 µM
same,"AD compound captured, Wash 3","[3]; […] gel 5 mg/mL, by MS",63 ± 8 µM
same,"AD compound captured, Wash 1","[3]; […] gel 5 mg/mL, by UV-Vis",90 ± 4 µM
same,"AD compound captured, Wash 2","[3]; […] gel 5 mg/mL, by UV-Vis",80 ± 5 µM
same,"AD compound captured, Wash 3","[3]; […] gel 5 mg/mL, by UV-Vis",73 ± 5 µM
